Reference: US7906477B2 (Genspera, Inc., priority 2002, dated 2011)
Square brackets hold non-standard residues; d marks the D form. Ends that are not written are not given here. Peptide text beside a SMILES is read from it. Tyr(3-NO2) = N[C@@H](Cc1ccc(O)c([N+](=O)[O-])c1)C(=O)O; Abz = aminobenzoic acid; 2Abz = Nc1ccccc1C(=O)O; Dap = NC[C@H](N)C(=O)O

Assays:
hK2 = molecular target: T1, hK2 (Homo sapiens, UniProt P20151); assay: hK2 mediated hydrolysis of peptide substrates in solution (fluorescence); format: biochemical; details: for hK2 mediated hydrolysis (in words, FIG. 2): substrates 250 μM, 8 μg/ml hK2 in PBS buffer; for digestion by hK2 of arginine-free peptides (in words): in solution, even after prolonged incubation
T1 construct: made in house
T1 sequence (P20151 25-261): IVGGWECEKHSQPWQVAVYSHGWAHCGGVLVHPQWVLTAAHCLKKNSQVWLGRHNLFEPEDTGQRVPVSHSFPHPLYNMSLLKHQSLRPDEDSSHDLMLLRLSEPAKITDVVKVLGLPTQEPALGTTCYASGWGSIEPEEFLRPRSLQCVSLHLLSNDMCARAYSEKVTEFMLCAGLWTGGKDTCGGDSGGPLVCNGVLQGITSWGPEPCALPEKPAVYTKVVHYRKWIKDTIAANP
Experimental: FIG. 2 depicts a graph of hK2 mediated hydrolysis of peptide substrates identified through the screening of a random peptide library [Y′GKARAF-Dap-FK′ (SEQ ID NO:36), Y′GKAKPR-Dap-FK′ (SEQ ID NO:37), Y′GKAFRR-Dap-FK′ (SEQ ID NO:38), Y′GKAMRQ-Dap-FK′ (SEQ ID NO:39) and Y′GSKGHFKL-Dap-F-K′ (SEQ ID NO:40)]. Substrates (250 μM) were incubated with 8 μg/ml hK2 in PBS buffer. Hydrolysis of peptide results in increased fluorescence, as measured using a 96 well fluorometer. […] To determine 100% digestion, trypsin was added (50 mg/ml) and samples were incubated to 37° C. for 30 min and the fluorescence was determined. The percentage digested is determined by dividing fluorescence units of sample by fluorescence units of control fully digested peptide.
A mutant form of hK2 was utilized in which the amino acids −5 to −1 of the propeptide sequence of hK2 (i.e. Leu-Ile-Gln-Ser-Arg; SEQ ID NO:15) were mutated to Asp-Asp-Asp-Asp-Lys (SEQ ID NO:16) to generate a pro-hK2 protein that can be activated to functional hK2 by […] (Lovgren, J. et al. (1999) Eur. J. Biochem. 266:1050-1055). Compared with wild-type hK2, expression of the propeptide hK2 mutant increases the expression levels up to 15-40-fold (Lovgren, J. et al. (1999) Eur. J. Biochem. 266:1050-1055). The generation and characteristics of this mutant hK2 have been previously described (Lovgren, J. et al. (1999) Eur. J. Biochem. 266:1050-1055).
For validation of the Edman results, peptides were re-synthesized using a Rainin PS3 peptide synthesizer with HBTU/NMM activation. Peptides were synthesized on PEGA resin for on-bead analysis or on Fmoc-Lys(Mtt)-Wang resin for solution assays. The Fmoc-Lys(Mtt)-Wang resin was first deprotected with 2% TFA in DCM (3×2 min). The ε-amine of lysine was then acylated with Boc-Abz. Deprotection/cleavage was performed in TFA/TIS/water (95:2.5:2.5 v/v) for 2-3 hours. Peptides were ether precipitated, dried and purified by C18-HPLC using a linear gradient of acetonitrile (0.1% TFA), lyophilized and dissolved in DMSO. Peptide identities were confirmed by analysis on a Perseptive Voyager DE-STR MALDI-TOF using dihydroxy benzoic acid as a matrix. Fluorescence measurements were performed on a Fluoroskan II 96-well plate reader (ICN biomedicals, Costa Mesa, Calif.; excitation, 355 nm; emission, 460 nm). Kinetic parameters were calculated as described earlier (Denmeade, S. R. et al. (1997) Cancer Res. 57:4924-4930).
The combinatorial screen identified seven arginine-containing peptides. Four of these were re-synthesized (X1-X2-X3=RAF, KPR, FRR and MRQ respectively). Three other lead sequences were not re-synthesized (X1-X2-X3=IQR, FRK and VRQ respectively). All four arginine-containing sequences that were re-synthesized reproduced fluorescence when these peptides were digested on-bead with hK2. For a more quantitative analysis, the fluorescence-quenched peptides were cleaved off the resin and purified by HPLC. The rate of hydrolysis was quantified by measuring increase in fluorescence (Figure). […] In less than five minutes, more than 50% of the peptide was digested (500 μM peptide, 4 μg/ml hK2). For the other peptides, digestion of the same amount of peptide took 19-29 minutes. […] In subsequent studies, hydrolysis rates using the Y′GKAFRR-Dap-F-K′ (SEQ ID NO:38) peptide were analyzed by Lineweaver-Burke reciprocal plots.

[1] = plasma stability in 50% human plasma; format: in vitro ADME; details: for remaining at 3 h, 500 μM: HPLC, read-out: parent peptide remaining after 3 hours; for degradation after overnight incubation (in words): human plasma
Experimental: FIG. 5 depicts the stability of Ac-GKAFRR-L12ADT (SEQ ID NO:41) in human plasma after a 24 hour incubation, as determined by HPLC analysis. Ac-GKAFRR-L12ADT (SEQ ID NO:41) was incubated in 50% human plasma for 24 hours at room temperature. Peak 1 represents an unidentified plasma contaminant that was also present in control plasma. Peaks 2 and 3 both represent Ac-GKAFRR-L12ADT (SEQ ID NO:41) as confirmed by MALDI-TOF mass spectrometric analysis.
(§1) Mouse plasma was obtained from cardiac puncture of anesthetized mice prior to euthanization by CO2 overdose according to protocols approved by the Johns Hopkins Animal Care and Use Committee. Human plasma was obtained from discarded, pooled, and unlabeled clinical samples. Plasma was diluted to 50% in Tris buffer (50 mM Tris-HCl, 100 mM NaCl, pH 7.8). To this, test peptides/prodrugs were added to 250 or 500 μM final concentration. After the incubation period, one volume (200 μl) of acetonitrile was added to precipitate the protein fraction and the tube was centrifuged at 14,000 for 2 min. The supernatant was analyzed by C18-HPLC and the collected peaks were analyzed by MALDI-TOF as described above.
(§2) Arginine-containing peptides are potential substrates for the wide variety of other trypsin-like proteases that are present in the blood and may have residual activity in the blood. The plasma stability of an hK2 peptide substrate may therefore be limited and this would have significant consequences related to the development of an hK2 activated prodrug. Therefore, two fluorescence quenched hK2 peptide substrates peptides were incubated in 50% mouse or human plasma (diluted in PBS buffer) to determine stability using a plate-reader. As observed with arginine containing peptides from the SPOT analysis above, none of the arginine-containing, fluorescence quenched hK2peptide substrates were stable in human or mouse plasma. Fluorescence-quenched Y′GKAFRR-Dap-GK′ (SEQ ID NO:42) and Y′GKAFRRLGK′ (SEQ ID NO:21) (500 μM each) were hydrolyzed when incubated in 50% mouse or human plasma (FIG. 7). Mouse plasma degraded the peptides faster than human plasma (FIG. 7). […] In human plasma, more peptide remained after 3 hours (˜25%). […] The proteolytic activity from plasma was never affected by repeated freeze-thaw cycles or by storage of the mouse plasma alone at room temperature for several days.
To determine the plasma stability for the hK2 prodrug, the prodrug was incubated in 50% fresh heparinized (1%) plasma for 24 hours at room temperature, precipitated the proteins by adding one volume of 1% TFA in acetonitrile and analyzed the supernatant by HPLC. Unexpectedly, BPLC analysis after 24 hrs incubation in plasma yielded only a single peak corresponding to the hK2 prodrug (FIG. 5). MALDI-TOF MS of the isolated single peak confirmed the stability of the molecule.

[2] = plasma stability in 50% mouse plasma; format: in vitro ADME; details: 500 μM; for parent peptide remaining after 3 hours (in words): HPLC
Experimental: as §1, §2

Molecule: C[C@H](NC(=O)[C@H](CCCCN)NC(=O)CNC(=O)[C@@H](N)Cc1ccc(O)c([N+](=O)[O-])c1)C(=O)N[C@@H](Cc1ccccc1)C(=O)N[C@@H](CCCNC(=N)N)C(=O)N[C@@H](CCCNC(=N)N)C(=O)N[C@@H](CN)C(=O)N[C@@H](Cc1ccccc1)C(=O)N[C@@H](CCCCNC(=O)c1ccccc1N)C(=O)O [Y′GKAFRR-Dap-F-K′] (H-[Tyr(3-NO2)]GKAFRR[Dap]FK(2Abz)-OH; N-terminus assumed)
- maximum digestion (hK2; 500 μM peptide, 4 μg/ml hK2): 70-75%
- time in which more than 50% of the peptide was digested (hK2; 500 μM peptide, 4 μg/ml hK2): less than five
- time to reach maximum digestion (hK2; 500 μM peptide, 4 μg/ml hK2): less than 15 minutes
- hK2 mediated hydrolysis (in words, FIG. 2) (hK2): by far exceeded all other substrates

Molecule: C[C@H](NC(=O)[C@H](CCCCN)NC(=O)CNC(=O)[C@@H](N)Cc1ccc(O)c([N+](=O)[O-])c1)C(=O)N[C@@H](Cc1ccccc1)C(=O)N[C@@H](CCCNC(=N)N)C(=O)N[C@@H](CCCNC(=N)N)C(=O)N[C@@H](CN)C(=O)NCC(=O)N[C@@H](CCCCNC(=O)c1ccccc1N)C(=O)O [Y′GKAFRR-Dap-GK′] (H-[Tyr(3-NO2)]GKAFRR[Dap]GK(2Abz)-OH; N-terminus assumed)
- remaining at 3 h, 500 μM ([1]; 50% human plasma, 500 μM): ~25%
- degradation after overnight incubation (in words) [1]: complete degradation
- parent peptide remaining after 3 hours (in words) [2]: almost no parent peptide remained

Molecule: CC(C)C[C@H](NC(=O)[C@H](CCCNC(=N)N)NC(=O)[C@H](CCCNC(=N)N)NC(=O)[C@H](Cc1ccccc1)NC(=O)[C@H](C)NC(=O)[C@H](CCCCN)NC(=O)CNC(=O)[C@@H](N)Cc1ccc(O)c([N+](=O)[O-])c1)C(=O)NCC(=O)N[C@@H](CCCCNC(=O)c1ccccc1N)C(=O)O [Y′GKAFRRLGK′] (H-[Tyr(3-NO2)]GKAFRRLGK(2Abz)-OH)
- hK2 hydrolysis rate after substitution of Dap-F with Leu-Gly (in words) (hK2; compare FIG. 2 with FIG. 8): only a modest decrease in hydrolysis rate
- relative stability of the peptides (in words) ([1]; 50% human plasma, 500 μM): less stable than the Dap containing peptide
- remaining at 3 h, 500 μM ([1]; 50% human plasma, 500 μM): ~25%
- degradation after overnight incubation (in words) [1]: complete degradation
- relative stability of the peptides (in words) [2]: less stable than the Dap containing peptide
- parent peptide remaining after 3 hours (in words) [2]: almost no parent peptide remained

Molecule: Y′GSKGHFHL-Dap-K′: arginine-free fluorescence-quenched peptide from SPOT analysis sequence ([Tyr(3-NO2)]GSKGHFHL[Dap]K(Abz))
- digestion by hK2 of arginine-free peptides (in words) (hK2): none of these three arginine free peptides were digested by hK2

Molecule: Y′GSKGHFKL-Dap-F-K′: fluorescence-quenched substrate without arginine ([Tyr(3-NO2)]GSKGHFKL[Dap]FK(Abz))
- hK2 mediated hydrolysis (in words, FIG. 2) (hK2): did not show any hydrolysis

Molecule: Y′GSKGHFKL-Dap-K′: arginine-free fluorescence-quenched peptide, P1 lysine ([Tyr(3-NO2)]GSKGHFKL[Dap]K(Abz))
- digestion by hK2 of arginine-free peptides (in words) (hK2): none of these three arginine free peptides were digested by hK2

Molecule: Y′GSKGPFKL-Dap-K′: arginine-free fluorescence-quenched peptide derivative ([Tyr(3-NO2)]GSKGPFKL[Dap]K(Abz))
- digestion by hK2 of arginine-free peptides (in words) (hK2): none of these three arginine free peptides were digested by hK2
